Test results published in US11751567B2, “Steroidal piperidone derivative, synthesis method, and use thereof” (NORTHWEST A&F UNIVERSITY, priority 2021, dated 2023).
In brackets after ≈: the same amount, converted by molar mass.

Tests used:
Type in all cases: in vivo
Myzus persicae = assay: slide-dip mortality test on aphids (Myzus persicae); conditions: 24 h, read-out: Corrected mortality (%) Myzus persicae
Experimental: (§1) Inhibitory activities of the steroidal piperidone derivatives listed in Tables 1 and 2 against Myzus persicae, Aphis citricola, Brevicoryne brassicae, and wheat aphids were determined through slide-dip method. Specific process: A specified amount of a compound to be tested was accurately weighed and dissolved with acetone as a solvent, and solutions with concentrations of 50 μg/mL and 75 μg/mL were each prepared with a 0.1% Tween-80 aqueous solution, allowed to stand at room temperature for 0.5 h until the sample was completely dissolved, and stored for later use. Then, adult aphids were fixed with double-sided tape on slides with a small brush. One end of the slide with the aphids was immersed in the test solutions for 5 seconds. The excess liquid was absorbed with absorbent paper, and the mortality rates were calculated 24 h after treatment. Acetamiprid was adopted as a positive control, and a 0.1% Tween-80 aqueous solution was adopted as a negative control. and the results are shown in Table 1.

Aphis citricola = assay: slide-dip mortality and LC50 test on aphids (Aphis citricola)
Experimental: as §1

Brevicoryne brassicae = assay: slide-dip mortality test on aphids (Brevicoryne brassicae); conditions: 24 h, read-out: Corrected mortality (%) Brevicoryne brassicae
Experimental: as §1

wheat aphids = assay: slide-dip mortality test on aphids (wheat aphids); conditions: 24 h, read-out: Corrected mortality (%) Wheat aphid
Experimental: as §1

Tetranychus truncatus = assay: slide dipping mortality test on mites; conditions: slide dipping, process as for aphids, read-out: Corrected mortality (%) Tetranychus truncatus
Experimental: as §1
The inhibitory activities of the steroidal piperidone derivatives listed in Table 3 on Tetranychus truncatus were tested through slide dipping.

Bemisia tabaci = assay: foliar spray test on cucumber leaf against B. tabaci; conditions: 168 h, read-out: Corrected mortality (%) B. tabaci
Experimental: (§2) The toxic activities of the steroidal piperidone derivatives listed in Table 4 against B. tabaci were tested by a foliar spray method. Specific process: A specified amount of a compound to be tested was accurately weighed and dissolved in acetone, and solutions with concentrations of 50 μg/mL and 75 μg/mL were each prepared with a 0.1% of Tween 80 aqueous solution and stored for later use. The pesticide solution was sprayed on the back side of a cucumber leaf, the cucumber leaf was naturally dried, and B. tabaci to be tested were placed on the cucumber leaf. Thiamethoxam was used as a positive control, and acetone was used as a negative control. Several deaths were observed after 7 d of treatment, and the corrected mortality was calculated.

rice planthoppers = assay: foliar spray test against rice planthoppers; conditions: 72 h, read-out: Corrected mortality (%) rice planthoppers
Experimental: as §2
The toxic activities of the steroidal piperidone derivatives listed in Table 5 against rice planthoppers were tested by a foliar spray method. Imidacloprid was used as a positive control, and acetone was used as a negative control. Several deaths were observed after 3 d of treatment, and the corrected mortality was calculated.

[1] = 24 h, read-out: Corrected mortality (%) Aphis citricola

C[C@]12CC[C@H](O)CC1=CC[C@@H]1[C@@H]2CC[C@@]2(C)[C@H]1CCC(=O)N2C(=O)c1ccc(C(F)(F)F)cc1 [Compound (2)-12]
mortality at 50 µg/mL (Myzus persicae): 59.1%
mortality at 75 µg/mL (Myzus persicae): 79.8%
mortality at 50 µg/mL (Aphis citricola; [1]): 60.7%
mortality at 75 µg/mL (Aphis citricola; [1]): 83%
LC50 (Aphis citricola; read-out: LC50 of inhibitory activity against Aphis citricola): 21.9 µg/mL (≈ 46.1 µM)
mortality at 50 µg/mL (Brevicoryne brassicae): 61.8%
mortality at 75 µg/mL (Brevicoryne brassicae): 82.8%
mortality at 50 µg/mL (wheat aphids): 65%
mortality at 75 µg/mL (wheat aphids): 84.3%
mortality at 50 µg/mL (Tetranychus truncatus; 50 μg/mL): 33.8%
mortality at 75 µg/mL (Tetranychus truncatus; 75 μg/mL): 55.5%
mortality at 50 µg/mL (Bemisia tabaci): 47.5%
mortality at 75 µg/mL (Bemisia tabaci): 58.6%
mortality at 50 µg/mL (rice planthoppers): 54%
mortality at 75 µg/mL (rice planthoppers): 63%
